What is called Kd is a measure of binding affinity in units of concentration. Low readings indicate tighter binding, high ones weaker binding. Usually IC50 stands for the point on the concentration scale where inhibition reaches its midpoint. Low readings indicate greater potency, high ones weaker potency.

This note sets out measurements from ChEMBL document CHEMBL5346965, “Synthesis of Bleomycin-Inspired RNA Ligands Targeting the Biogenesis of Oncogenic miRNAs” (J Med Chem, 2023).

Activity calls are given as the source filed them. The calls are words filed in the database; no cut-off is given here.

For data set [1], the target named is microRNA 21. Description: Binding affinity to 5'-fluorescein labeled pre-miR-21 (unknown origin) by fluorescence based assay. In kind it is nucleic-acid assay.
Data set [2] has as its system microRNA 21. Kind of data set: Inhibition of pre-miR-21 (unknown origin) dicer cleavage activity upto 1 mM preincubated for 30 mins followed by RNAase III addition and measured after 30 to 60 mins by FRET method. Format: functional. Particulars: time 60-90 min.
Data set [3] concerns the target microRNA 21. Description: Inhibition of pre-miR-21 (unknown origin) dicer cleavage activity preincubated for 30 mins followed by MCF7 cell lysates addition and measured after 30 to 60 mins by FRET method. Format: functional, subcellular.
A short description of data set [4]: Selectivity index, ratio of IC50 for inhibition of pre-miR-21 (unknown origin) dicer cleavage activity preincubated for 30 mins followed by MCF-7 cell lysates addition and measured after 30 to 60 mins by FRET method to IC50 for inhibition of pre-miR-21 (unknown origin) dicer cleavage activity preincubated for 30 mins followed by RNAase III addition and measured after 30 to 60 mins by FRET method.

Data set [5] addresses microRNA 21. Description: Inhibition of pre-miR-21 (unknown origin) dicer cleavage activity preincubated for 30 mins followed by RNAase III addition and measured after 30 to 60 mins by FRET method. Format: functional.
Another data set deals with U-87 MG. Description: Antiproliferative activity against human U87 cells incubated for 72 hrs by WST-1 assay. Format: functional, cell-based, U-87MG ATCC.
The nature of data set [6]: Antiproliferative activity against human N13-1300 cells incubated for 72 hrs by WST-1 assay. Format: functional, cell-based. Particulars: N13-1300, 72 h. (In general: Tetrazolium assays rely on reduction of a dye to a coloured formazan, in cell work by metabolically active cells.)
Data set [7] is described as follows: Antiproliferative activity against human N15-0385 cells incubated for 72 hrs by WST-1 assay. In kind it is functional, cell-based. Particulars: N15-0385, 72 h.
Data set [8] in a line: Antiproliferative activity against human MRC5 cells incubated for 72 hrs by WST-1 assay. Format: toxicity, cell-based.

`Cc1ccc(S(=O)(=O)NCCc2nc(-c3nc(C(=O)NCCCNCCCCN)cs3)cs2)cc1`: binding on microRNA 21 [1] was characterised by a dissociation constant (Kd) of 0.33 µM.

Compound `Cc1c(N)nc([C@H](CC(N)=O)NC[C@H](N)C(N)=O)nc1C(=O)N[C@H](C(=O)N[C@H](C)[C@@H](O)[C@H](C)C(=O)N[C@H](C(=O)NCCc1nc(-c2nc(C(=O)NCCCNCCCCN)cs2)cs1)[C@@H](C)O)[C@@H](O[C@@H]1O[C@@H](CO)[C@@H](O)[C@H](O)[C@@H]1O[C@@H]1O[C@H](CO)[C@@H](O)[C@H](OC(N)=O)[C@@H]1O)c1cnc[nH]1` returned a Kd on microRNA 21 [1] of 12.6 µM. In addition, in the data set on microRNA 21 [2], the inhibition result is “inactive”.

The compound `NCCCCNCCCNC(=O)c1csc(-c2csc(CCNC(=O)[C@@H](N)Cc3c[nH]cn3)n2)n1` came in with a dissociation constant Kd at microRNA 21 [1] of 1.68 µM.

On to `NCCCCNCCCNC(=O)c1csc(-c2csc(CCNS(=O)(=O)c3cc4ccccc4s3)n2)n1`, for which, at microRNA 21 [1], the Kd is 0.33 µM. Besides, the IC50 against microRNA 21 [3] worked out at 55.5 µM; against microRNA 21 [5] it was 11.8 µM. The Ratio IC50 in [4] stood at 4.7.

Turning to `NCCCCNCCCNC(=O)c1csc(-c2csc(CCNCc3ccc4scnc4c3)n2)n1`, the IC50 at microRNA 21 [3] came out at 4.68 µM; in the data set on U-87 MG it was 16.5 µM; in [6], 24.5 µM; against microRNA 21 [5], 3.74 µM; in [7], 44.7 µM. In addition, the Ratio IC50 in [4] turned out to be 1.3. Also, the IC50 at 72 h in [8] was over 100 µM.

On microRNA 21 [5], `Cc1nc(C)c(S(=O)(=O)NCCc2nc(-c3nc(C(=O)NCCCNCCCCN)cs3)cs2)s1` yielded an IC50 of 75.9 µM.

Regarding `NCCCCNCCCNC(=O)c1csc(-c2csc(CCNCc3ccc4[nH]cnc4c3)n2)n1`, the IC50 at microRNA 21 [3] is 50.1 µM; against microRNA 21 [5] it was 20.3 µM. In data set [4], the Ratio IC50 worked out at 2.5.

On microRNA 21 [1], `C#CCCCCC(=O)NCCc1nc(-c2nc(C(=O)NCCCNCCCCN)cs2)cs1` came in with a Kd of 1.87 µM.

On microRNA 21 [1], `NCCCCNCCCNC(=O)c1csc(-c2csc(CCNS(=O)(=O)c3cccc4cccnc34)n2)n1` showed a Kd of 0.33 µM.

For the compound `CC(C)(C)c1ccc(S(=O)(=O)NCCc2nc(-c3nc(C(=O)NCCCNCCCCN)cs3)cs2)cc1`, the Kd on microRNA 21 [1] was 0.33 µM. Besides, the IC50 against microRNA 21 [3] was 92.8 µM; against microRNA 21 [5] it was 16.4 µM. In addition, the Ratio IC50 in data set [4] worked out at 5.6.

On microRNA 21 [5], `NCCCCNCCCNC(=O)c1csc(-c2csc(CCNS(=O)(=O)c3c[nH]cn3)n2)n1` yielded an IC50 of 20.3 µM.

In turn, `CN(C)c1ccc(/N=N/c2ccc(S(=O)(=O)NCCc3nc(-c4nc(C(=O)NCCCNCCCCN)cs4)cs3)cc2)cc1` showed a Kd at microRNA 21 [1] of 0.076 µM. The IC50 amounted to 6.93 µM against microRNA 21 [3]; 45.3 µM in the data set with U-87 MG; 22 µM in data set [6]; 1.62 µM against microRNA 21 [5]; 37.1 µM in data set [7]. Besides, the Ratio IC50 in data set [4] worked out at 4.3. This compound showed an IC50 at 72 h in data set [8] of over 100 µM.

Consider `Cn1nnc2c(C(N)=O)ncn2c1=O` [TEMOZOLOMIDE], for which the IC50 is 20.8 µM in data set [6] and over 100 µM in [7].

On microRNA 21 [1], `NCCCCNCCCNC(=O)c1csc(-c2csc(CCN)n2)n1` showed a Kd of 3.63 µM. Besides, the IC50 is 37.4 µM in the data set on U-87 MG, 67.3 µM in [6] and over 100 µM in data set [7]. In addition, the inhibition entry in the data set on microRNA 21 [5] (time 60-90 min) was “inactive”. In [8], this compound showed an IC50 at 72 h of 16.6 µM.

At microRNA 21 [1], `NCCCCNCCCNC(=O)c1csc(-c2csc(CCNS(=O)(=O)c3ccc4ccccc4c3)n2)n1` registered a Kd of 0.33 µM.

As for `NCCCCNCCCNC(=O)c1csc(-c2csc(CCNC(=O)c3ccc4cccnc4n3)n2)n1`, the Kd at microRNA 21 [1] amounted to 0.4 µM.

At microRNA 21 [1], `NCCCCNCCCNC(=O)c1csc(-c2csc(CCNC(=O)CCCC[C@@H]3SC[C@@H]4NC(=O)N[C@@H]43)n2)n1` displayed a Kd of 1.91 µM. Also, the inhibition result in the data set on microRNA 21 [3] (time 60-90 min) is “inactive”. This compound registered an IC50 against microRNA 21 [5] of 38.3 µM.

At microRNA 21 [1], `NCCCCNCCCNC(=O)c1csc(-c2csc(CCNC(=O)[C@@H](N)CCCCN)n2)n1` gave a Kd of 0.835 µM.

Take `NCCCCNCCCNC(=O)c1csc(-c2csc(CCNCc3ccccc3)n2)n1`: the IC50 is 195 µM against microRNA 21 [3] and 31.2 µM against microRNA 21 [5]. Moreover, the Ratio IC50 in [4] was 6.2.
